Counter-ions that a name gives are not always drawn.
Experiments:
[1] = tested on: Amphetamine Stereotypy; assay: Antagonism of Amphetamine Stereotypy in Rats (ED50 for blocking characteristic amphetamine cage movement); format: in vivo; conditions: s.c., hydrochloride; for ED50, 1 Hr.: 60 min; for ED50, 24 Hrs.: 1440 min
Protocol: The effects of the compounds of the present invention on prominent amphetamine-induced symptoms were studied in rats by a rating scale modeled after the one reported by Quinton and Halliwell, and Weissman. Groups of five rats were placed in a covered plastic cage measuring approximately 26 cm.×42 cm.×16 cm. […] They were then treated 1, 5 and 24 hrs. later with d-amphetamine sulfate, 5 mg./kg. intraperitoneally (i.p.). […] On the basis of dose-response data after amphetamine it was possible to determine the effective dose of the compound necessary to antagonize or block the characteristic amphetamine behavior of cage movement for fifty percent of the rats tested (ED50). The time of rating chosen coincides with the peak action of amphetamine which is 60-80 min. after treatment with this agent.
Employing the above-described procedure, the following 4a,9b-trans compounds were tested for their ability to block the behavior effects of amphetamine, the results being reported as the ED50 in mg./kg. at the indicated times: [drawing 30]
A. The following results were obtained on the mixture of diastereomers for those compounds wherein R contains a secondary alcohol group and on the single diastereomer of the other 4a, 9b-trans hexahydro-pyrido-indoles.
B. The results of tests in which compounds of the invention reported in Part A, above are compared with the corresponding δ-substituted-5-aryl-1,2,3,4-tetrahydropyrido[4,3-b]indoles of U.S. Pat. No. 4,001,263 are summarized below. For each pair the results obtained on the prior art compound (a) are given first and the results for the compound of the invention (b) are given second. Where indicated the test compound was also administered orally (p.o.) and tests were carried out for 48 hours.
C. […] In each case the compounds are of the formula
The tests were carried out for 72 hours.

[2] = biological target: dopamine receptors (Rattus norvegicus, UniProt P61169); assay: Inhibition of 3H-Spiroperidol Binding to Dopamine Receptors (rat corpus striatum); set-up: species or system rats (Sprague-Dawley CD males); conditions: 0.5 nM 3H-spiroperidol, 10 minutes at 37° C.
Chain of dopamine receptors (P61169 whole entry): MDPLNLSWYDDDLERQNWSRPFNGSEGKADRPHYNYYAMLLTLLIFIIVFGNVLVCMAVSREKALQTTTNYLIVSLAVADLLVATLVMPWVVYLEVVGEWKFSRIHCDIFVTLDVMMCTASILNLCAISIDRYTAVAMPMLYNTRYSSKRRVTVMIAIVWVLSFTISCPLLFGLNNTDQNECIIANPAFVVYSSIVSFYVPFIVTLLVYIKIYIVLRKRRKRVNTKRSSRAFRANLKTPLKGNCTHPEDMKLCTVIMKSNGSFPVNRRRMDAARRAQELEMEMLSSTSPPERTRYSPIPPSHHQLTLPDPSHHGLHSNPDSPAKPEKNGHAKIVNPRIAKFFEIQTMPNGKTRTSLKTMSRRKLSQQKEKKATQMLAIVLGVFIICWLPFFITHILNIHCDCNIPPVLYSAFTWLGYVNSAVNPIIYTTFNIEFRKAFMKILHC

[3] = Part C, isomers of Examples 13 and 14
[4] = Part D, enantiomers by synthesis of Example 21

**Q.** What does the source list for `OC(CCCN1CC[C@@H]2[C@@H](C1)c1cc(F)ccc1N2c1ccc(F)cc1)c1ccc(F)cc1` (single isomer, unassigned) [δ, trans 8-fluoro-5-(p-fluorophenyl)-2-[4-hydroxy-4(p-fluorophenyl)butyl]-2,3,4,4a,5,9b-hexahydro-1H-pyrido[4,3-b]indole hydrochloride]?
**A.** ED50, 1 Hr. [1, 3]: > 1000 micrograms/kilograms; ED50, 1 Hr. [1, 4]: > 10 mg/kg; ED50, 5 Hrs. ([1]; 5 hrs, Part D, enantiomers by synthesis of Example 21, 300 min): 5.7 mg/kg; ED50, 24 Hrs. [1, 3]: 320-1000 micrograms/kilograms; ED50, 24 Hrs. [1, 4]: > 10 mg/kg; ED50, 48 Hrs. ([1]; 48 hrs, Part D, enantiomers by synthesis of Example 21, 2880 min): > 10 mg/kg; ED50, 72 Hrs. ([1]; 72 hrs, Part D, enantiomers by synthesis of Example 21, 4320 min): > 10 mg/kg; IC50 [2]: 0.35 µM

Source: US4224329A, “2-Substitute d-trans-5-aryl-2,3,4,4a,5,9b-hexahydro-1H-pyrido[4,3-b]indoles” (Pfizer Inc., priority 1979, dated 1980)
